Our source for the IC50 values is PubChem BioAssay AID493092 (Sanford-Burnham Center for Chemical Genomics, 2011).

pIC50: −log10 of the molar value. Active and inactive are the calls of the source.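 How the source made its calls: active means averaged IC50 for reducing per-cell lipid droplet stain intensity under a set limit; inactive means the rest.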

The test system of this experiment is AML12 mouse hepatocytes, BODIPY lipid droplet imaging. The experiment is described as follows: inhibitors of hepatocyte lipid droplet formation, SAR follow-up, imaging, AML12 mouse hepatocytes, BODIPY staining (AID 493092). As to conditions: cells fed 100 µM oleate overnight.

Regarding `Cc1cc(C)n(-c2ccc(C(=O)OC(C)C(=O)Nc3nc(-c4ccccc4)cs3)cc2)n1` (stereo not given), the IC50 (as a rule, the concentration needed to halve the response being measured) is > 32000 nM (inactive).

In the case of `CCOc1ccc(CCNC(=O)CCC(=O)N2CCOc3ccc(C)cc32)cc1OCC`, the negative-log IC50 (pIC50) (usually the negative decadic logarithm of the IC50, by convention in mol/L) was 6.53.

For `CCOc1ccc(CCNC(=O)CCc2nc(-c3ccc(OC)cc3)no2)cc1OCC`, the pIC50 is 6.52. Turning to `Cc1nn2c(N3CCOCC3)c3c(nc2c1-c1ccccc1)CCC3`, the IC50 is 21600 nM (inactive). For `CCOc1ccc(C(=O)NCC(=O)NC(C)CCc2ccccc2)cc1OCC` (stereo not given), the negative logarithm of the IC50 (pIC50) is 6.16. As to `CCOc1ccc(CCNC(=O)Cn2cccc2C(=O)c2ccccc2C)cc1OCC`, the pIC50 was 6.48. For the molecule `Cc1cc(N2CCOCC2)n2nc(C)c(-c3ccccc3Cl)c2n1`, the negative logarithm of the IC50 (pIC50) was 6.39. In the case of `COc1ccc(C(=O)OC(C)C(=O)NC(C)CCc2ccccc2)cc1[N+](=O)[O-]` (stereo not given), the negative-log IC50 (pIC50) is 6.58. Regarding `CCOc1ccc(CCNC(=O)CN2C(=O)c3cccnc3Oc3ccc(C)cc32)cc1OCC`, the negative logarithm of the IC50 (pIC50) is 6.77. The same measure, in the same setting: next, `CCOc1ccc(CCNC(=O)Nc2cccc(OC)c2)cc1OCC`: 6.87. Consider `CCOc1ccc(CCNC(=O)CN2CCN(Cc3ccccc3C)C2=O)cc1OCC`, for which the negative-log IC50 (pIC50) was 6.26. As for `COc1cc(NC(=O)c2cccs2)c(OC)cc1NC(=O)CCC(=O)Nc1cccc2ccccc12`, the pIC50 is 6.59. For the molecule `CCc1ccccc1NC(=O)CCC(=O)Nc1cc(OC)c(NC(=O)c2cccs2)cc1OC`, the pIC50 was 6.27. Regarding `CC(=O)Nc1ccc(-c2csc(NC(=O)Cc3cccc(F)c3)n2)cc1`, the pIC50 is 5.57. For the molecule `CC(OC(=O)c1ccc(F)cc1)C(=O)Nc1nc(-c2cccc([N+](=O)[O-])c2)cs1` (stereo not given), the IC50 was > 32000 nM (inactive). `CC(OC(=O)c1ccc(O)cc1)C(=O)Nc1nc(-c2cccc([N+](=O)[O-])c2)cs1` (stereo not given): the IC50 was > 32000 nM (inactive).

Regarding `CCOc1ccc(CCNC(=O)CCc2nnc3ccc(N4CCCCC4)nn23)cc1OCC`, the negative-log IC50 (pIC50) is 6.44. For `CCOc1ccc(CCNC(=O)CSc2cc(=O)n(CC)c3ccccc23)cc1OCC`, the pIC50 was 5.90. With `Cc1cc(N2CCOCC2)n2nc(C(F)(F)F)c(-c3ccc(Cl)cc3)c2n1`, the pIC50 was 6.95.

With `COc1ccc(C(=O)OCC(=O)NC(C)CCc2ccccc2)c(OC)c1` (stereo not given), the pIC50 was 6.00.
